# Experimental data as given in patent US20250243189A1, “HERBICIDAL IMIDAZOLE-CONTAINING COMPOUNDS” (SYNGENTA CROP PROTECTION AG, priority 2022, published 2025).
# Key:
# Format in all cases: in vivo
# Conditions in all cases: 250 g/ha, evaluated after 13 days, five-point scale
# IPOHE [1] = assay: Post-emergence herbicidal glasshouse test
# Description: (§1) Seeds of a variety of test species are sown in standard soil in pots Amaranthus retoflexus (AMARE), Echinochloa crus-galli (ECHCG), Setaria faberi (SETFA)). After cultivation for one day (pre-emergence) or after 8 days cultivation (post-emergence) under controlled conditions in a glasshouse (at 24/16° C., day/night; 14 hours light; 65% humidity), the plants are sprayed with an aqueous spray solution derived from the formulation of the technical active ingredient in acetone/water (50:50) solution containing 0.5% Tween 20 (polyoxyethelyene sorbitan monolaurate, CAS RN 9005-64-5). Compounds are applied at 250 g/ha unless otherwise stated. The test plants are then grown in a glasshouse under controlled conditions in a glasshouse (at 24/16° C., day/night; 14 hours light; 65% humidity) and watered twice daily. After 13 days for pre and post-emergence, the test is evaluated for the percentage damage caused to the plant. The biological activities are shown in the following table on a five-point scale (5=81-100%; 4=61-80%; 3=41-60%; 2=21-40%; 1=0-20%).
# [2] = system: Echinochloa crus-galli (ECHCG); assay: Post-emergence herbicidal glasshouse test
# Description: as §1
# [3] = system: Amaranthus retoflexus (AMARE); assay: Post-emergence herbicidal glasshouse test
# Description: as §1
# Setaria faberi (SETFA) [4] = assay: Post-emergence herbicidal glasshouse test
# Description: as §1
# AMAPA [5] = assay: Post-emergence herbicidal glasshouse test
# Description: [Worded in the source for another organism; this organism is reported under the same test.] as §1
# IPOHE [6] = assay: Pre-emergence herbicidal glasshouse test
# Description: as §1
# [7] = system: Echinochloa crus-galli (ECHCG); assay: Pre-emergence herbicidal glasshouse test
# Description: as §1
# [8] = system: Amaranthus retoflexus (AMARE); assay: Pre-emergence herbicidal glasshouse test
# Description: as §1
# Setaria faberi (SETFA) [9] = assay: Pre-emergence herbicidal glasshouse test
# Description: as §1
# AMAPA [10] = assay: Pre-emergence herbicidal glasshouse test
# Description: [Worded in the source for another organism; this organism is reported under the same test.] as §1
SMILES,"percentage damage caused to the plant, IPOHE (IPOHE [1])","percentage damage caused to the plant, ECHCG [2]","percentage damage caused to the plant, AMARE [3]","percentage damage caused to the plant, SETFA (Setaria faberi (SETFA) [4])","percentage damage caused to the plant, AMAPA (AMAPA [5])","percentage damage caused to the plant, IPOHE (IPOHE [6])","percentage damage caused to the plant, ECHCG [7]","percentage damage caused to the plant, AMARE [8]","percentage damage caused to the plant, SETFA (Setaria faberi (SETFA) [9])","percentage damage caused to the plant, AMAPA (AMAPA [10])"
"FC(F)(F)c1cn(Cc2ncc(Cl)cn2)c(-n2cc(Cl)cn2)n1 [Compound 1.065, 5-chloro-2-[[2-(4-chloropyrazol-1-yl)-4-(trifluoromethyl)imidazol-1-yl]methyl]pyrimidine]",3 (3=41-60%),2 (2=21-40%),4 (4=61-80%),2 (2=21-40%),4 (4=61-80%),4 (4=61-80%),1 (1=0-20%),5 (5=81-100%),2 (2=21-40%),5 (5=81-100%)
FC(F)n1cc(-c2nc(C(F)(F)F)cn2Cc2ncc(Cl)cn2)cn1 [Compound 1.017],5 (5=81-100%),5 (5=81-100%),5 (5=81-100%),,5 (5=81-100%),5 (5=81-100%),5 (5=81-100%),5 (5=81-100%),,5 (5=81-100%)
Cc1cnc(Cn2cc(C(F)(F)F)nc2-c2ccc(Cl)s2)nc1 [Compound 1.072],4 (4=61-80%),5 (5=81-100%),5 (5=81-100%),,5 (5=81-100%),5 (5=81-100%),5 (5=81-100%),5 (5=81-100%),,5 (5=81-100%)
Fc1ccc(-c2nc(C(F)(F)F)cn2Cc2ncc(Cl)cn2)s1 [Compound 1.038],4 (4=61-80%),5 (5=81-100%),5 (5=81-100%),,4 (4=61-80%),5 (5=81-100%),5 (5=81-100%),5 (5=81-100%),,5 (5=81-100%)
Cc1ccc(-c2nc(C(F)(F)F)cn2Cc2ncc(Cl)cn2)s1 [Compound 1.011],2 (2=21-40%),4 (4=61-80%),4 (4=61-80%),,4 (4=61-80%),5 (5=81-100%),5 (5=81-100%),5 (5=81-100%),,5 (5=81-100%)
N#Cc1ccc(Cn2cc(C(F)(F)F)nc2-c2ccc(Cl)s2)nc1 [Compound 1.049],4 (4=61-80%),4 (4=61-80%),5 (5=81-100%),,5 (5=81-100%),5 (5=81-100%),4 (4=61-80%),5 (5=81-100%),,5 (5=81-100%)
CS(=O)(=O)c1ccc(-c2nc(C(F)(F)F)cn2Cc2ncc(Cl)cn2)s1 [Compound 1.003],4 (4=61-80%),5 (5=81-100%),4 (4=61-80%),,4 (4=61-80%),5 (5=81-100%),5 (5=81-100%),5 (5=81-100%),,5 (5=81-100%)
"FC(F)c1cn(Cc2ncc(Cl)cn2)c(-c2ccc(Cl)s2)n1 [Compound 1.058, 5-chloro-2-[[2-(5-chloro-2-thienyl)-4-(difluoromethyl)imidazol-1-yl]methyl]pyrimidine]",4 (4=61-80%),4 (4=61-80%),5 (5=81-100%),,5 (5=81-100%),5 (5=81-100%),5 (5=81-100%),5 (5=81-100%),,5 (5=81-100%)
FC(F)(F)c1cn(Cc2ncc(Cl)cn2)c(-c2sccc2Cl)n1 [Compound 1.002],1 (1=0-20%),1 (1=0-20%),1 (1=0-20%),,1 (1=0-20%),1 (1=0-20%),1 (1=0-20%),2 (2=21-40%),,2 (2=21-40%)
FC(F)(F)c1cn(Cc2ncc(Cl)cn2)c(-c2cnn(C3CC3)c2)n1 [Compound 1.015],5 (5=81-100%),4 (4=61-80%),5 (5=81-100%),,4 (4=61-80%),5 (5=81-100%),5 (5=81-100%),5 (5=81-100%),,5 (5=81-100%)
Fc1ccc(Cn2cc(C(F)(F)F)nc2-c2ccc(Cl)s2)nc1 [Compound 1.050],4 (4=61-80%),4 (4=61-80%),4 (4=61-80%),,4 (4=61-80%),5 (5=81-100%),5 (5=81-100%),5 (5=81-100%),,5 (5=81-100%)
Cc1ncsc1-c1nc(C(F)(F)F)cn1Cc1ncc(Cl)cn1 [Compound 1.042],4 (4=61-80%),4 (4=61-80%),5 (5=81-100%),,5 (5=81-100%),5 (5=81-100%),5 (5=81-100%),5 (5=81-100%),,5 (5=81-100%)
FC(F)(F)c1cn(Cc2ncc(Cl)cn2)c(-c2ncco2)n1 [Compound 1.019],1 (1=0-20%),1 (1=0-20%),1 (1=0-20%),,1 (1=0-20%),1 (1=0-20%),1 (1=0-20%),1 (1=0-20%),,1 (1=0-20%)
